Assay results as given in patent US8273775B2, “Non-steroidal brassinosteroid mimetic” (priority 2006, dated 2012).

Test system: gene expression in Col-0 seedling shoots
Assay: Microarray analysis (ATH1 Affymetrix) after BL or abrasin treatment
Type: in vivo, Arabidopsis
Details: 120 min
Method: FIG. 14: Clustering of gene expression profiles by QT-clust analysis. Clusters illustrating the major patterns of the data sets. Points: BIK-30: 30 μM abrasin 30 min; BL-30: 1 μM brassinolide 30 min; DMSO-30: control DMSO 30 min; BIK-120: 30 μM abrasin 120 min; BL-120: 1 μM brassinolide 120 min; DMSO-120: control DMSO 120 min.
Col-0 seeds were germinated vertically on ½ MS medium for 7 days under 16 h light/8 h dark cycles. The seedlings were overlaid with liquid ½ MS medium containing 1 μM brassinolide (BL, Fuji Chemical Industries, Ltd., Toyama, Japan), 30 μM abrasin (BIK, ChemBridge Corporation) and DMSO and treated for 30 and 120 min. The shoot parts were collected for RNA isolation. All sampling points were performed in three independent experiments. RNA was extracted using RNeasy kit (Qiagene). […] total RNA per array was used to hybridise the ATH1 Affymetrix Arabidopsis arrays according to standard procedure. The overrepresentation analyses were performed using BiNGO software (Maere et al., 2005).
We performed a microarray analysis using the Arabidopsis whole genome chip (Affymetix) to determine whether abrasin activated the expression of BR-inducible genes at transcriptional level. Wild-type Col-0 seedlings were exposed to 1 μM BL, 30 μM ABRASIN and DMSO (mock-treatment) for two time points (30 min and 120 min) and the shoot parts were collected for RNA isolation. The analysis of the variance of the normalized gene expression data took in account the variability parameters affecting the expression level: type of hormone treatment, duration of treatment and the interaction between these two.

## O=C(O)CCC(=O)Nc1ccc(Br)cn1 [abrasin, 4-[(5-bromo-2-pyridinyl)amino]-4-oxobutanoic acid]
  Fold-change AT4G16780 homeobox-leucine zipper protein 4 (HAT4)/HD-ZIP protein: 0.42
  Fold-change AT4G17250 expressed protein: 3.32
  Fold-change AT4G17460 homeobox-leucine zipper protein 1 (HAT1)/HD-ZIP protein 1: 0.11
  Fold-change AT4G21510 F-box family protein: 2.54
  Fold-change AT4G23030 MATE efflux protein-related: 5.25
  Fold-change AT4G23070 rhomboid family protein: 3.80
  Fold-change AT4G23810 WRKY family transcription factor: 1.00
  Fold-change AT4G24160 hydrolase, alpha/beta fold family protein: 2.29
  Fold-change AT4G25620 hydroxyproline-rich glycoprotein family protein: 0.49
  Fold-change AT4G25780 pathogenesis-related protein: 0.18
  Fold-change AT4G27970 C4-dicarboxylate transporter/malic acid transport family protein: 3.04
  Fold-change AT4G28240 wound-responsive protein-related: 0.33
  Fold-change AT4G28490 leucine-rich repeat transmembrane protein kinase, putative: 2.30
  Fold-change AT4G28703 expressed protein: 6.14
  Fold-change AT4G28780 GDSL-motif lipase/hydrolase family protein: 1.26
  Fold-change AT4G29070 expressed protein: 0.50
  Fold-change AT4G30080 transcriptional factor B3 family protein: 0.41
  Fold-change AT4G31020 expressed protein: 5.81
  Fold-change AT4G32280 auxin-responsive AUX/IAA family protein (IAA29): 0.13
  Fold-change AT4G33050 calmodulin-binding family protein: 1.58
  Fold-change AT4G33700 CBS domain-containing protein: 0.38
  Fold-change AT4G34610 homeodomain-containing protein: 0.41
  Fold-change AT4G36110 auxin-responsive protein: 4.62
  Fold-change AT4G36780 brassinosteroid signalling positive regulator-related: 0.03
  Fold-change AT4G37240 expressed protein: 1.45
  Fold-change AT4G37290 expressed protein: 2.45
  Fold-change AT4G37590 phototropic-responsive NPH3 family protein: 0.43
  Fold-change AT4G38840 auxin-responsive protein (SAUR14): 1.95
  Fold-change AT4G38850 auxin-responsive protein (SAUR-AC1): 2.22
  Fold-change AT4G38860 auxin-responsive protein (SAUR16): 2.27
  Fold-change AT4G39400 brassinosteroid insensitive 1 (BRI1): 0.46
  Fold-change AT5G02020 expressed protein: 2.29
  Fold-change AT5G05690 cytochrome P450 90A1 (CYP90A1) (CYP90) (CPD): 0.29
  Fold-change AT5G07690 myb family transcription factor (MYB29): 0.27
  Fold-change AT5G08130 basic helix-loop-helix (bHLH) family protein (BIM2): 0.37
  Fold-change AT5G12050 expressed protein: 0.27
  Fold-change AT5G13180 no apical meristem (NAM) family protein: 0.39
  Fold-change AT5G13740 sugar transporter family protein: 0.23
  Fold-change AT5G14730 expressed protein: 0.53
  Fold-change AT5G16200 50S ribosomal protein-related: 0.10
  Fold-change AT5G16980 NADP-dependent oxidoreductase: 3.07
  Fold-change AT5G18750 DNAJ heat shock N-terminal domain-containing protein: 1.26
  Fold-change AT5G19200 short-chain dehydrogenase/reductase (SDR) family protein: 1.11
  Fold-change AT5G19340 expressed protein: 0.23
  Fold-change AT5G24030 C4-dicarboxylate transporter/malic acid transport family protein: 1.66
  Fold-change AT5G24660 expressed protein: 3.61
  Fold-change AT5G25240 expressed protein: 2.16
  Fold-change AT5G25930 leucine-rich repeat family protein: 1.38
  Fold-change AT5G27350 sugar-porter family protein 1 (SFP1): 1.56
  Fold-change AT5G27670 histone H2A: 0.41
  Fold-change AT5G38310 expressed protein: 1.88
  Fold-change AT5G38990; AT5G39000 [AT5G38990, protein kinase family protein: 2.08
  Fold-change AT5G39050 transferase family protein: 1.83
  Fold-change AT5G39610 no apical meristem (NAM) family protein: 0.35
  Fold-change AT5G39970 expressed protein: 2.66
  Fold-change AT5G42830 transferase family protein: 2.74
  Fold-change AT5G47370 homeobox-leucine zipper protein 2 (HAT2): 0.43
  Fold-change AT5G48070 putative xyloglucan endotransglycosylase/hydrolase: 3.63
  Fold-change AT5G48540 33 kDa secretory protein-related: 2.03
  Fold-change AT5G51550 phosphate-responsive 1 family protein: 0.41
  Fold-change AT5G54490 calcium-binding EF-hand protein, putative: 3.06
  Fold-change AT5G54860 integral membrane transporter family protein: 2.01
  Fold-change AT5G55970 zinc finger (C3HC4-type RING finger) family protein: 2.56
  Fold-change AT5G56980 expressed protein: 0.22
  Fold-change AT5G57190 phosphatidylserine decarboxylase: 1.58
  Fold-change AT5G57780 expressed protein: 0.13
  Fold-change AT5G59080 expressed protein: 0.40
  Fold-change AT5G60200 Dof-type zinc finger domain-containing protein: 3.85
  Fold-change AT5G60270 lectin protein kinase family protein: 2.56
  Fold-change AT5G60630 expressed protein: 2.20
  Fold-change AT5G61600 encodes a member of the ERF (ethylene response factor): 2.04
  Fold-change AT5G62360 invertase/pectin methylesterase inhibitor family protein: 0.25
  Fold-change AT5G65310 homeobox-leucine zipper protein 5 (HB-5)/HD-ZIP transcription factor 5: 0.20
  Fold-change AT5G66420 expressed protein: 0.42
  Fold-change AT5G66590 allergen V5/Tpx-1-related family protein: 0.31
  Fold-change AT5G67450 zinc finger (C2H2 type) protein 1 (AZF1): 1.82
245479_at, Cluster 6
  Fold-change of gene AT4G16140 (proline-rich family protein): 1.51
245543_at, Cluster 7
  Fold-change of gene AT4G15260 (UDP-glucoronosyl/UDP-glucosyl transferase family protein): 1.52
245885_at, Cluster 5
  Fold-change of gene AT5G09440 (phosphate-responsive protein, putative): 0.13
246389_at, Cluster 10
  Fold-change of gene AT1G77380 (amino acid carrier): 0.99
246516_at, Cluster 5
  Fold-change of gene AT5G15740 (expressed protein): 0.49
247177_at, Cluster 5
  Fold-change of gene AT5G65300 (expressed protein): 0.25
247205_at, Cluster 10
  Fold-change of gene AT5G64890 (expressed protein): 2.18
247351_at, Cluster 9
  Fold-change of gene AT5G63790 (no apical meristem (NAM) family protein): 0.69
247444_at, Cluster 7
  Fold-change of gene AT5G62630 (expressed protein): 2.28
247601_at, Cluster 10
  Fold-change of gene AT5G60850 (Dof-type zinc finger domain-containing protein): 0.64
247704_at, Cluster 9
  Fold-change of gene AT5G59510 (expressed protein): 0.60
247774_at, Cluster 5
  Fold-change of gene AT5G58660 (oxidoreductase. 2OG-Fe(II) oxygenase family protein): 2.15
248190_at, Cluster 5
  Fold-change of gene AT5G54120 (expressed protein): 0.38
248191_at, Cluster 5
  Fold-change of gene AT5G54130 (calcium-binding EF hand family protein): 0.31
248282_at, Cluster 6
  Fold-change of gene AT5G52900 (expressed protein): 0.96
248646_at, Cluster 9
  Fold-change of gene AT5G49100 (expressed protein): 0.62
250012_x_at, Cluster 6
  Fold-change of gene AT5G18060 (auxin-responsive protein): 0.46
250493_at, Cluster 9
  Fold-change of gene AT5G09800 (U-box domain-containing protein): 0.80
250537_at, Cluster 8
  Fold-change of gene AT5G08565 (expressed protein): 0.41
250907_at, Cluster 5
  Fold-change of gene AT5G03670 (expressed protein): 0.32
251072_at, Cluster 5
  Fold-change of gene AT5G01740 (expressed protein): 0.34
251176_at, Cluster 10
  Fold-change of gene AT3G63380 (calcium-transporting ATPase): 0.11
251342_at, Cluster 9
  Fold-change of gene AT3G60690 (auxin-responsive family protein): 0.29
252586_at, Cluster 10
  Fold-change of gene AT3G45610 (Dof-type zinc finger domain): 2.56
252646_at, Cluster 5
  Fold-change of gene AT3G44610 (protein kinase family protein): 0.38
253255_at, Cluster 6
  Fold-change of gene AT4G34760 (auxin-responsive family protein): 1.61
253281_at, Cluster 7
  Fold-change of gene AT4G34138 (UDP-glucoronosyl/UDP-glucosyl transferase family protein): 3.16
253483_at, Cluster 5
  Fold-change of gene AT4G31910 (transferase family protein): 1.60
253617_at, Cluster 5
  Fold-change of gene AT4G30410 (expressed protein): 0.45
253629_at, Cluster 5
  Fold-change of gene AT4G30450 (glycine-rich protein): 0.39
253999_at, Cluster 9
  Fold-change of gene AT4G26200 (1-aminocyclopropane-1-carboxylate synthase): 0.24
255403_at, Cluster 6
  Fold-change of gene AT4G03400 (auxin-responsive GH3 family protein): 0.77
255443_at, Cluster 7
  Fold-change of gene AT4G02700 (sulfate transporter): 2.16
255926_at, Cluster 8
  Fold-change of gene AT1G22190 (AP2 domain-containing transcription factor): 0.50
256528_at, Cluster 6
  Fold-change of gene AT1G66140 (zinc finger (C2H2 type) family protein): 0.61
256762_at, Cluster 8
  Fold-change of gene AT3G25655 (expressed protein): 0.15
256818_at, Cluster 7
  Fold-change of gene AT3G21420 (oxidoreductase, 2OG-Fe(II) oxygenase family protein): 2.39
257066_at, Cluster 5
  Fold-change of gene AT3G18280 (protease inhibitor/seed storage/lipid transfer protein): 0.39
257506_at, Cluster 6
  Fold-change of gene AT1G29440 (auxin-responsive family protein): 0.47
257746_at, Cluster 5
  Fold-change of gene AT3G29200 (chorismate mutase, chloroplast (CM1)): 0.49
259364_at, Cluster 8
  Fold-change of gene AT1G13260 (DNA-binding protein RAV1 (RAV1)): 0.46
259773_at, Cluster 6
  Fold-change of gene AT1G29500 (auxin-responsive protein): 0.61
259783_at, Cluster 6
  Fold-change of gene AT1G29510 (auxin-responsive protein): 0.50
259784_at, Cluster 6
  Fold-change of gene AT1G29450 (auxin-responsive protein): 0.61
259787_at, Cluster 6
  Fold-change of gene AT1G29460 (auxin-responsive protein): 0.44
259875_s_at, Cluster 7
  Fold-change of gene AT1G76690; AT1G76680 ([AT1G76690, 12-oxophytodienoate reductase (OPR2)): 6.14
259985_at, Cluster 8
  Fold-change of gene AT1G76620 (expressed protein): 0.28
260243_at, Cluster 10
  Fold-change of gene AT1G63720 (expressed protein): 0.16
260727_at, Cluster 8
  Fold-change of gene AT1G48100 (glycoside hydrolase family 28 protein): 0.38
261023_at, Cluster 7
  Fold-change of gene AT1G12200 (flavin-containing monooxygenase family protein): 2.20
261203_at, Cluster 6
  Fold-change of gene AT1G12845 (expressed protein): 2.71
261768_at, Cluster 6
  Fold-change of gene AT1G15550 (gibberellin 3-beta-dioxygenase): 1.17
261892_at, Cluster 9
  Fold-change of gene AT1G80840 (WRKY family transcription factor): 0.20
262040_at, Cluster 6
  Fold-change of gene AT1G80080 (leucine-rich repeat family protein): 2.07
262050_at, Cluster 8
  Fold-change of gene AT1G80130 (expressed protein): 0.18
262505_at, Cluster 10
  Fold-change of gene AT1G21680 (expressed protein): 2.01
262543_at, Cluster 6
  Fold-change of gene AT1G34245 (expressed protein): 5.18
263126_at, Cluster 7
  Fold-change of gene AT1G78460 (SOUL heme-binding family protein): 2.50
264279_s_at, Cluster 7
  Fold-change of gene AT1G78820; AT1G78830 ([AT1G78820, curculin-like (mannose-binding) lectin family protein): 1.84
265877_at, Cluster 6
  Fold-change of gene AT2G42380 (bZIP transcription factor family protein): 0.80
266124_at, Cluster 8
  Fold-change of gene AT2G45080 (cyclin family protein): 0.10
